In patent USRE39681E1, “1-(4-sulfamyaryl)-3-substituted-5-aryl-2-pyrazolines and inhibitors of cyclooxygenase-2” (Temple University - of the Commonwealth System of Higher …, priority 1999, dated 2007):

Columns and labels:
[1] = Cyclooxygenase enzyme assay (TLC method), COX-1; format: biochemical, ovine; conditions: second column headed COX-2; preincubation 90-120 min, [1-14C] arachidonic acid 50 μM; read-out: Inhibition of Cyclooxygenase Activity IC50 COX-2
Method: Cyclooxygenase activity of ovine COX-1 (Oxford Biomedical Research Inc.) and human recombinant COX-2 (Oxford Biomedical Research Inc.) was assayed by a thin layer chromatography (TLC) method as follows. All inhibitors were dissolved in dimethyl sulfoxide to a stock solution of 5mM. Human recombinant COX-2 (3 units) or ovine COX-1 (15 units) was incubated with inhibitors at several concentrations in a solution containing 100 mM Tris-HCl, pH7.8, 500 μM phenol and hematin for 90 to 120 minutes at room temperature (24° C.). In controls, equal volumes of DMSO without drug were added to the incubation mixture. After incubation for 90-120 minutes, [1-^14C] arachidonic acid (50 μM, 51 mCi/mmol) (DuPont NEN) was added and incubated at 37° C. for 2 minutes. The reaction was terminated by extraction with 1 ml of ethyl acetate. The ethyl acetate layer was transferred into a fresh tube and evaporated to dryness in a Speedvac vacuum dryer. The contents of the tubes were reconstituted in […] of ethyl acetate and spotted on a TLC plate (J. T. Baker, Philipsburg, N.J.) and developed in a mobile phase containing chloroform/methanol (95:5) at 4° C. Radiolabeled prostanoid compounds (the products of COX enzymatic reaction with radiolabeled arachidonic acid substrate) were quantitated with a radioactivity scanner (Fuji, Phosphorimager). […]

DLD-1 cells = assay: Soft agar assay, colony growth; format: cell-based, human; conditions: highest concentration tested (range 10 μM to 75 μM), one dose, stained 20 days later, FIG. 1
Method: The Example 1 and 24 compounds were compared to the COX-2 inhibitor celecoxib in inhibiting the growth of DLD-1 cells in soft agar. DLD-1 cells are human colorectal carcinoma cells that overexpress COX-2. DLD-1 cells grow in soft agar and form tumors in nude mice. The soft agar assay was performed as follows. A layer of bottom agar ([…]) was placed onto 60 mm^2 tissue culture dishes. The tumor cells were trypsinized from normal growth flasks while in exponential growth. The cells were counted by using a hemacytometer and 1.0×10^5 cells were placed into the top agar mixture containing growth medium, 4% noble agar and various concentrations of drugs. The concentration range was normally between 10 μM to 75 μM. The cells were not refed during the assay system; therefore, the cells were treated with one dose of the agents. The plates were stained 20 days later with a 0.05% (w/v) nitroblue tetrazolium solution (which stains only viable cells) for 48 hours. The results are shown in FIG. 1, the y-axis being the percent of cell colonies remaining in comparison to untreated control cells.

IC50 [1] | SMILES | inhibition of DLD-1 cell colony growth in soft agar (DLD-1 cells)
< 100 µM | NS(=O)(=O)c1ccc(N2N=C(C(F)(F)F)CC2c2ccccc2)cc1 (stereo not shown) [Example 1, 1-(4-Sulfamylphenyl)-3-trifluoromethyl-5-phenyl-2-pyrazoline] | 100%
< 100 µM | NS(=O)(=O)c1ccc(N2N=C(C(F)(F)F)CC2c2c[nH]c3ccccc23)cc1 (stereo not shown) [Example 24, 1-(4-Sulfamylphenyl)-3-trifluoromethyl-5-(3-indolyl)-2-pyrazoline] | 100%
